Assay results as given in patent publication US9393236B2, “Use of 4-cyclopropylmethoxy-N-(3,5-dichloro-1-oxido-4-pyridin-4-yl)-5-(methoxy)pyridine-2-carboxamide in the treatment of cranial traumas” (SANOFI, priority 2007, dated 2016).

Tests used:
ferret = test: Evaluation of the emetic effects in the ferret; format: in vivo
Description: The emetic capacity of 4-cyclopropylmethoxy-N-(3,5-dichloro-1-oxidopyridin-4-yl)-5-(methoxy)pyridine-2-carboxamide was evaluated in the ferret. Two groups of ferrets were used, the first receiving the carrier (PEG200) and the second receiving 4-cyclopropyl methoxy-N-(3,5-dichloro-1-oxidopyridin-4-yl)-5-(methoxy)pyridine-2-carboxamide in solution in the carrier (PEG 200), by oral gavage. The animals were observed continually for the 2 hours following the administration, and then every hour up to 6 hours after the administration. The clinical signs (in particular retching and vomiting) were noted.
The emetic capacity of (R)-(−)-rolipram was evaluated in the ferrets. Two groups of ferrets were used, the first being given the carrier (PEG200) and the second being given the (((4R)-4-[3-(cyclopentyloxy)-4-methoxyphenyl]pyrrolidine-2-one)) in solution in the carrier (PEG 200), by oral gavage, at doses of 0.05 mg/kg and of 0.1 mg/kg. The animals were observed continually for the 2 hours following administration, and then once an hour up to 6 hours after the administration. The clinical signs were noted.

[1] = test system: rats with parietal cranial trauma; test: CFR (Conditioned Freezing Response) test after a parietal cranial trauma; format: in vivo, rat (Sprague-Dawley); conditions: rat; 0.05 mg/kg i.v. 4 h after surgery (D0), then 0.1 mg/kg/day per os twice a day D1-D21; CFR measured D23/D24; p<0.001 vs traumatized animal given the carrier
Description: After general anaesthesia, rats (Sprague-Dawley, male, 150-200 g, Charles River) are placed in a stereotaxis frame. A craniotomy is performed at the level of the parietal cortex (AP: 3.5 mm; LAT: 7 mm and 3.5 mm below the cranial roof). A catheter connected to an HPLC pump is placed in contact with the dura mater and a pressure of 0.073 Kpsi is exerted.
The animals are treated intravenously 4 h after the surgery (D0) by administering a solution of 4-cyclopropylmethoxy-N-(3,5-dichloro-1-oxidopyridin-4-yl)-5-(methoxy)pyridine-2-carboxamide in the carrier (PEG200/physiological saline (NaCl 0.9%)), at the dose of 0.05 mg/kg.
Starting from D1 and up to D21 post-surgery, the animals are treated with a solution containing 4-cyclopropylmethoxy-N-(3,5-dichloro-1-oxidopyridin-4-yl)-5-(methoxy)pyridine-2-carboxamide in the carrier (methylcellulose (MC) (0.6%)+tween-80 (0.5%) in water) per os, twice a day, at the total daily dose of 0.1 mg/kg.
The deficiency in the CFR was measured at days D23 and D24 post-surgery.
At D23, the animal is placed in a box, where it receives an electric shock of 0.6 mA for 1.5 s.
At D24, the animal is again placed in the same box and the duration of immobility is measured for 3 minutes.

[2] = 0.1 mg/kg by oral gavage in PEG200, observed up to 6 hours

| SMILES | emetic effects (retching and vomiting) (ferret; 0.05 mg/kg by oral gavage in PEG200, observed up to 6 hours) | emetic effects (retching and vomiting) (ferret; [2]) | inhibition of the deficiency (immobility time in CFR) induced by a cranial trauma [1] [%] |
| --- | --- | --- | --- |
| COc1ccc([C@@H]2CNC(=O)C2)cc1OC1CCCC1 [(R)-(−)-rolipram, (4R)-4-[3-(cyclopentyloxy)-4-methoxyphenyl]pyrrolidine-2-one] | induces vomiting | induces vomiting |  |
| COc1cnc(C(=O)Nc2c(Cl)c[n+]([O-])cc2Cl)cc1OCC1CC1 [4-Cyclopropylmethoxy-N-(3,5-dichloro-1-oxidopyridin-4-yl)-5-(methoxy)pyridine-2-carboxamide] |  | induces no retching or vomiting | 100 |
